Key:
surinam grass = assay: Test C pre-/postemergence herbicide test; format: in vivo, Brachiaria decumbens
Excerpt: Seeds of plant species selected from blackgrass (Alopecurus myosuroides), ryegrass, Italian (Italian ryegrass, Lolium multiflorum), wheat (winter wheat, Triticum aestivum), galium (catchweed bedstraw, Galium aparine), corn (Zea mays), crabgrass, large (large crabgrass, Digitaria sanguinalis), foxtail, giant (giant foxtail, Setaria faberii), johnsongrass (Sorghum halepense), lambsquarters (Chenopodium album), morningglory (Ipomoea coccinea), nutsedge, yellow (yellow nutsedge, Cyperus esculentus), pigweed (Amaranthus retroflexus), ragweed (common ragweed, Ambrosia elatior), soybean (Glycine max), barnyardgrass (Echinochloa crus-galli), oilseed rape (Brassica napus), waterhemp (common waterhemp, Amaranthus rudis), kochia (Kochia scoparia), oat, wild (wild oat, Avena fatua), surinam grass (Brachiaria decumbens), foxtail, green (green foxtail, Setaria viridis), goosegrass (Eleusine indica), bromegrass, downy (downy bromegrass, Bromus tectorum), nightshade (eastern black nightshade, Solanum ptycanthum), cocklebur (common cocklebur, Xanthium strumarium), cupgrass, woolly (woolly cupgrass, Eriochloa villosa), bermudagrass (Cynodon dactylon), sunflower, (common oilseed sunflower, Helianthus annuus), Russian thistle (Salsola kali) and velvetleaf (Abutilon theophrasti) were planted into a blend of loam soil and sand and treated preemergence with test chemicals formulated in a non-phytotoxic solvent mixture which included a surfactant. At the same time, plants selected from these crop and weed species and also barley (winter barley, Hordeum vulgare), […]), chickweed (common chickweed, Stellaria media), deadnettle (henbit deadnettle, Lamium amplexicaule), and canarygrass (littleseed canarygrass, Phalaris minor) were planted in pots containing Redi-Earth® planting medium (Scotts Company, 14111 Scottslawn Road, Marysville, Ohio 43041) comprising spaghnum peat moss, vermiculite, wetting agent and starter nutrients and treated with postemergence applications of test chemicals formulated in the same manner. Plants ranged in height from 2 to 18 cm (1- to 4-leaf stage) for postemergence treatments. Treated plants and controls were maintained in a greenhouse for 13 to 15 days, after which time all species were compared to controls and visually evaluated. Plant response ratings, summarized in Table C, are based on a scale of 0 to 100 where 0 is no effect and 100 is complete control. A dash (-) response means no test result.

crabgrass, Brazil = assay: Test E preemergence herbicide test; format: in vivo, Digitaria horizontalis; set-up: key: 0 = no effect, 100 = complete control
Excerpt: Seeds of plant species selected from corn (Zea mays), soybean (Glycine max), velvetleaf (Abutilon theophrasti), lambsquarters (Chenopodium album), wild poinsettia (Euphorbia heterophylla), pigweed, palmer (palmer pigweed, Amaranthus palmeri), waterhemp (common waterhemp, Amaranthus rudis), surinam grass (Brachiaria decumbens), crabgrass, large (large crabgrass, Digitaria sanguinalis), crabgrass, Brazil (Brazilian crabgrass, Digitaria horizontalis), panicum, fall (fall panicum, Panicum dichotomiflorum), foxtail, giant (giant foxtail, Setaria faberii), foxtail, green (green foxtail, Setaria viridis), goosegrass (Eleusine indica), johnsongrass (Sorghum halepense), ragweed (common ragweed, Ambrosia elatior), barnyardgrass (Echinochloa crus-galli), sandbur (southern sandbur, Cenchrus echinatus), arrowleaf […] rhombifolia), ryegrass, Italian (Italian ryegrass, Lolium multiflorum), dayflower, VA (Virginia dayflower, Commelina virginica), field bindweed (Convolvulus arvensis), morningglory (Ipomoea coccinea), nightshade (eastern black nightshade, Solanum ptycanthum), kochia (Kochia scoparia), nutsedge, yellow (yellow nutsedge, Cyperus esculentus), cocklebur (common cocklebur, Xanthium strumarium), smartweed (ladysthumb smartweed, Polygonum Persicaria) and beggarticks (hairy beggarticks, Bidens pilosa), were planted into a silt loam soil and treated preemergence with test chemicals formulated in a non-phytotoxic solvent mixture which included a surfactant. Treated plants and controls were maintained in a greenhouse for 21 days, after which time all species were compared to controls and visually evaluated. Plant response ratings, summarized in Table E, are based on a scale of 0 to 100 where 0 is no effect and 100 is complete control. A dash (-) response means no test result.

galium = assay: Test D pre-/postemergence herbicide test; format: in vivo, Galium aparine; conditions: for Plant response rating: Galium, scale 0 to 100; for Plant response rating, Galium: scale 0 to 100 (0 no effect, 100 complete control)
How it was run: (§1)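 Visual ratings from 0 (no effect) to 100 (complete control) were made against untreated controls 7 to 21 days after treatment. Application was both preemergence, on silt loam soil, and postemergence, to 1- to 4-leaf plants 2-18 cm tall; compounds were formulated in a non-phytotoxic surfactant-containing solvent.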

barley, winter = assay: Test D pre-/postemergence herbicide test; format: in vivo, Hordeum vulgare; conditions: for Plant response rating: Barley, Winter, scale 0 to 100; for Plant response rating, Barley, Winter: scale 0 to 100 (0 no effect, 100 complete control)
How it was run: as §1

[1] = Preemergence, 62 g ai/ha, scale 0 to 100
[2] = Preemergence, 125 g ai/ha, scale 0 to 100 (0 no effect, 100 complete control)

| Compound | Plant response rating, Crabgrass, Brazil (crabgrass, Brazil; 31 g ai/ha) | Plant response rating, Crabgrass, Brazil (crabgrass, Brazil; 62 g ai/ha) | Plant response rating, Crabgrass, Brazil (crabgrass, Brazil; 125 g ai/ha) | Plant response rating, Crabgrass, Brazil (crabgrass, Brazil; 250 g ai/ha) | Plant response rating (galium; Postemergence, 31 g ai/ha) | Plant response rating (galium; Postemergence, 62 g ai/ha) | Plant response rating (galium; Postemergence, 125 g ai/ha) | Plant response rating (galium; Postemergence, 250 g ai/ha) | Plant response rating, Galium (galium; Preemergence, 62 g ai/ha) | Plant response rating, Galium (galium; Preemergence, 31 g ai/ha) | Plant response rating (galium; Preemergence, 250 g ai/ha) | Plant response rating (barley, winter; Postemergence, 31 g ai/ha) | Plant response rating (barley, winter; Postemergence, 62 g ai/ha) | Plant response rating (barley, winter; Postemergence, 125 g ai/ha) | Plant response rating (barley, winter; Postemergence, 250 g ai/ha) | Plant response rating, Barley, Winter (barley, winter; Preemergence, 62 g ai/ha) | Plant response rating, Barley, Winter (barley, winter; Preemergence, 31 g ai/ha) | Plant response rating (barley, winter; Preemergence, 250 g ai/ha) | also measured |
| --- | --- | --- | --- | --- | --- | --- | --- | --- | --- | --- | --- | --- | --- | --- | --- | --- | --- | --- | --- |
| O=C1NCC(c2ccc(Cl)c(Cl)c2)C1C(=O)Nc1ccccc1F (racemic) [Compound 14] | 65 | 80 | 95 | 95 | – | – | – | – | – | – | – | – | – | – | – | – | – | – | Plant response rating, Surinam Grass (surinam grass; [1]): 80; Plant response rating, Surinam Grass (surinam grass; [2]): 95; Plant response rating, Crabgrass, Brazil (crabgrass, Brazil; 16 g ai/ha): 0 |
| O=C1NCC(c2ccc(C(F)(F)F)cc2)C1C(=O)Nc1cccc(F)c1F (racemic) [Compound 202] | 80 | 98 | 98 | 98 | 60 | 70 | 70 | 70 | 70 | 75 | 85 | 0 | 0 | 0 | 0 | 20 | 20 | 25 | Plant response rating (galium; Preemergence, 125 g ai/ha): 80; Plant response rating (barley, winter; Preemergence, 125 g ai/ha): 20 |
| O=C1NCC(c2ccc(OC(F)F)cc2)C1C(=O)Nc1cccc(F)c1F (racemic) [Compound 350] | 0 | 75 | 95 | 98 | – | – | – | – | – | – | – | – | – | – | – | – | – | – | – |
| O=C1NCC(c2ccc(F)c(F)c2)C1C(=O)Nc1cccc(F)c1F (stereo not shown) [Compound 17, N-(2,3-difluorophenyl)-4-(3,4-difluorophenyl)-2-oxo-3-pyrrolidinecarboxamide] | 65 | 95 | 95 | 98 | 0 | 0 | 10 | 30 | – | – | – | 0 | 0 | 0 | 0 | – | – | – | Plant response rating (galium; Postemergence, 16 g ai/ha): 0; Plant response rating, Surinam Grass (surinam grass; Postemergence, 31 g ai/ha, scale 0 (no effect) to 100 (complete control)): 0; Plant response rating, Surinam Grass (surinam grass; Postemergence, 62 g ai/ha, scale 0 to 100 (0 no effect, 100 complete control)): 0; Plant response rating, Surinam Grass (surinam grass; Postemergence, 125 g ai/ha, scale 0 to 100 (0 no effect, 100 complete control)): 45; Plant response rating, Surinam Grass (surinam grass; Postemergence, 250 g ai/ha, scale 0 to 100 (0 no effect, 100 complete control)): 60; Plant response rating, Surinam Grass (surinam grass; [1]): 90; Plant response rating, Surinam Grass (surinam grass; [2]): 90; Plant response rating, Crabgrass, Brazil (crabgrass, Brazil; 16 g ai/ha): 40; Plant response rating (barley, winter; Postemergence, 16 g ai/ha): 0 |
| O=C1NCC(c2ccc(C(F)(F)F)cc2)C1C(=O)Nc1cccc(F)c1F (stereo not shown) [Compound 80, N-(2,3-difluorophenyl)-2-oxo-4-[4-(trifluoromethyl)phenyl]-3-pyrrolidinecarboxamide] | – | – | 70 | 95 | 20 | 45 | 55 | 60 | 45 | 0 | 75 | 0 | 0 | 0 | 0 | 5 | 0 | 25 | Plant response rating (galium; Preemergence, 125 g ai/ha): 65; Plant response rating (barley, winter; Preemergence, 125 g ai/ha): 15 |
| O=C1NC[C@H](c2cccc(C(F)(F)F)c2)[C@H]1C(=O)Nc1ccccc1F [Compound 204, (3R,4S)—N-(2-fluorophenyl)-2-oxo-4-[3-(trifluoromethyl)phenyl]-3-pyrrolidinecarboxamide] | 95 | 95 | 98 | 98 | – | – | – | – | 10 | 0 | 25 | – | – | – | – | 20 | 0 | 35 | Plant response rating, Galium (galium; Preemergence, 125 g ai/ha): 10; Plant response rating, Barley, Winter (barley, winter; Preemergence, 125 g ai/ha): 25 |
| O=C1NC[C@H](c2cccc(C(F)(F)F)c2)[C@H]1C(=O)Nc1cccc(F)c1F [Compound 206] | 80 | 98 | 98 | 98 | – | – | – | – | 40 | 10 | 80 | – | – | – | – | 30 | 15 | 65 | Plant response rating, Galium (galium; Preemergence, 125 g ai/ha): 50; Plant response rating, Barley, Winter (barley, winter; Preemergence, 125 g ai/ha): 40 |
